# Experimental data: patent publication US20190105337A1, “METHODS OF TREATING BACTERIAL INFECTIONS” (priority 2015, published 2019)
# Read-outs that look alike come from different tables or passages of the source.
# Columns and labels:
# clinical = details: human, in vivo; for clearance: Plasma Clearance; for Vd: Vss
# Protocol: The combination of both drugs was administered on day 7. All drugs were infused over 3 hours. Plasma and urine samples were obtained and assayed using validated HPLC/MS methods.
# [1] = human, in vivo
# Protocol: Forty one subjects were enrolled in 5 groups based on their degree of renal insufficiency. The five cohorts included: patients with normal renal function (CrCl≥90 ml/min), mild renal impairment (CrCl 60-89 ml/min), moderate renal impairment (CrCl 30-<60 ml/min), severe renal impairment (CrCl<30 ml/min, and patients with end stage renal disease requiring hemodialysis. Patients on renal replacement therapy other than standard hemodialysis (including continuous veno-venous hemofiltration, continuous veno-venous hemodialysis and continuous renal replacement therapy) were not studied.
# Plasma protein binding = assay type: in vitro ADME
# [2] = Example 6: noncompartmental plasma pharmacokinetics after third dose of the Combination (2 g meropenem/2 g Compound I q8h); details: for AUC(0-t) / clearance / Cmax / Tmax / half-life: both, human, plasma, intravenous; for clearance: CL
# Protocol: A total of twenty-five (n=25) male and female subjects who met the study entry criteria and completed all phases of the pharmacokinetic study were included in this pharmacokinetic analysis. […] Blood samples were collected to measure drug concentrations in plasma prior to (time 0), and at 1.5, 2.95, 3.083, 3.25, 3.5, 4, 6, and 8 hours after the start of a 3-hour intravenous infusion of the third combination dose.
# (Reports MC14B-0013, MC14B-0015, MC14I-011, and MC14I-0012). The urea concentrations in plasma and BAL were performed with a microplate-based method with an 0-phthalaldehyde chromogenic solution at MicroConstants, Inc., San Diego, Calif.
# Peak plasma concentration (Cmax) and time to Cmax (Tmax) were read from the observed plasma concentration-time profile after the start of the intravenous infusion of the third Combination dose. Area under the plasma concentration-time curve over 8 hours (AUC0-8) after the third dose was calculated with the linear-log trapezoidal rule (WinNonlin®, version 6.3, Pharsight Corporation, Cary, N.C.). The elimination rate constant (β) was determined by nonlinear least-squares regression. Elimination half-life (t½) was calculated by dividing β into the natural logarithm of two.
# [3] = In vitro hollow fiber model: pharmacokinetic parameters of meropenem and Compound I in the central compartment (Tables E, F)
# Protocol: In Vitro PK-PD Model: Six medium sized hollow-fiber cartridges (FiberCell Systems) were used per experiment. Three strains studied in duplicate were used for each experiment. Log-phase cells were inoculated and incubated for 2 hours prior to the start of treatment to achieve about 10^8 CFU/mL. Target PK parameters are listed in Tables E and F. The exposures were based on the published literatures disclosed in Example 2. Samples were collected from the central compartment for the determination of drug concentrations over a 32 hour period and were analyzed using an LC-MS/MS method.
# [4] = Compound I 2 g q8h, 1.5-hour BAL Sampling Group
# [5] = Compound I 2 g q8h, 3.25-hour BAL Sampling Group
# [6] = Compound I 2 g q8h, 4-hour BAL Sampling Group
# [7] = Compound I 2 g q8h, 6-hour BAL Sampling Group
# [8] = Compound I 2 g q8h, 8-hour BAL Sampling Group
# [9] = Compound I 2 g q8h, All Subjects
# [10] = combination Compound I/meropenem (Table F)
# [11] = meropenem 2 g q8h, 1.5-hour BAL Sampling Group
# [12] = meropenem 2 g q8h, 3.25-hour BAL Sampling Group
# [13] = meropenem 2 g q8h, 4-hour BAL Sampling Group
# [14] = meropenem 2 g q8h, 6-hour BAL Sampling Group
# [15] = meropenem 2 g q8h, 8-hour BAL Sampling Group
# [16] = meropenem 2 g q8h, All Subjects
smiles,measurement,setting,value
O=C(O)C[C@@H]1CC[C@H](NC(=O)Cc2cccs2)B(O)O1 [Compound I],AUC(0-inf),clinical; 250 mg,17.5 µg·h/mL
same,Cmax,"clinical; 250 mg, Cmax",5.2 µg/mL
same,half-life,clinical; 250 mg,1.18 h
same,clearance,clinical; 250 mg,245 mL/min
same,Vd,clinical; 250 mg,23.1 L
same,AUC(0-inf),clinical; 1000 mg,77.6 µg·h/mL
same,Cmax,"clinical; 1000 mg, Cmax",22 µg/mL
same,half-life,clinical; 1000 mg,1.56 h
same,clearance,clinical; 1000 mg,222 mL/min
same,Vd,clinical; 1000 mg,21.4 L
same,AUC(0-inf),clinical; 1500 mg,124 µg·h/mL
same,Cmax,"clinical; 1500 mg, Cmax",37.2 µg/mL
same,half-life,clinical; 1500 mg,1.21 h
same,clearance,clinical; 1500 mg,206 mL/min
same,Vd,clinical; 1500 mg,19.4 L
same,non-renal clearance,[1],no measurable non-renal clearance
same,fraction unbound,Plasma protein binding,0.67
same,Vss,[2]; [4],18.6 ± 2.3 L
same,Vss,[2]; [5],17.3 ± 2.3 L
same,Vss,[2]; [6],16.9 ± 0.9 L
same,Vss,[2]; [7],18.1 ± 3.9 L
same,Vss,[2]; [8],17.0 ± 3.3 L
same,Vss,[2]; [9],17.6 ± 2.6 L
same,AUC(0-t),"[2]; AUC0-8, Compound I 2 g q8h, 1.5-hour BAL Sampling Group",184 ± 38.6 µg·h/mL
same,AUC(0-t),"[2]; AUC0-8, Compound I 2 g q8h, 3.25-hour BAL Sampling Group",210 ± 32.2 µg·h/mL
same,AUC(0-t),"[2]; AUC0-8, Compound I 2 g q8h, 4-hour BAL Sampling Group",214 ± 35.4 µg·h/mL
same,AUC(0-t),"[2]; AUC0-8, Compound I 2 g q8h, 6-hour BAL Sampling Group",216 ± 33.7 µg·h/mL
same,AUC(0-t),"[2]; AUC0-8, Compound I 2 g q8h, 8-hour BAL Sampling Group",198 ± 36.6 µg·h/mL
same,AUC(0-t),"[2]; AUC0-8, Compound I 2 g q8h, All Subjects",204 ± 34.6 µg·h/mL
same,clearance,[2]; [4],188 mL/min
same,clearance,[2]; [5],162 mL/min
same,clearance,[2]; [6],158 mL/min
same,clearance,[2]; [7],158 mL/min
same,clearance,[2]; [9],168 mL/min
same,Cmax,[2]; [4],56.1 ± 13 µg/mL
same,Cmax,[2]; [5],59.7 ± 5.8 µg/mL
same,Cmax,[2]; [6],60.1 ± 5.7 µg/mL
same,Cmax,[2]; [7],60.9 ± 9.7 µg/mL
same,Cmax,[2]; [8],57.9 ± 8.8 µg/mL
same,Cmax,[2]; [9],59 ± 8.4 µg/mL
same,Tmax,[2]; [4],2.95 ± 0.01 h
same,Tmax,[2]; [5],3 ± 0.07 h
same,Tmax,[2]; [6],2.98 ± 0.06 h
same,Tmax,[2]; [7],3 ± 0.07 h
same,Tmax,[2]; [8],2.98 ± 0.06 h
same,Tmax,[2]; [9],2.98 ± 0.06 h
same,half-life,"[2]; t1/2, Compound I 2 g q8h, 1.5-hour BAL Sampling Group",1.18 ± 0.08 h
same,half-life,"[2]; t1/2, Compound I 2 g q8h, 3.25-hour BAL Sampling Group",1.26 ± 0.23 h
same,half-life,"[2]; t1/2, Compound I 2 g q8h, 4-hour BAL Sampling Group",1.34 ± 0.26 h
same,half-life,"[2]; t1/2, Compound I 2 g q8h, 6-hour BAL Sampling Group",1.37 ± 0.27 h
same,half-life,"[2]; t1/2, Compound I 2 g q8h, 8-hour BAL Sampling Group",1.18 ± 0.16 h
same,half-life,"[2]; t1/2, Compound I 2 g q8h, All Subjects",1.27 ± 0.21 h
same,"AUC, Average Compound I Actual",[3]; [10],105.3 µg·h/mL
same,"Cmax, Average Compound I Actual",[3]; [10],26.4 µg/mL
same,"Half-Life, Average Compound I Actual",[3]; [10],1.5 h
"C[C@@H](O)[C@H]1C(=O)N2C(C(=O)O)=C(S[C@@H]3CN[C@H](C(=O)N(C)C)C3)[C@H](C)[C@H]12 [meropenem, Meropenem]",AUC(0-∞),clinical,130.34 µg·h/mL
same,Cmax,clinical,42.54 µg/mL
same,half-life,clinical,0.98 h
same,clearance,clinical,334 mL/min
same,Vd,clinical,25.9 L
same,non-renal clearance,[1],non-renal clearance assumes a greater proportion of total clearance
same,fraction unbound,Plasma protein binding,0.94
same,fraction unbound,Plasma protein binding; human,0.98
same,AUC(0-t),"[2]; AUC0-8, meropenem 2 g q8h, 1.5-hour BAL Sampling Group",168 ± 41.7 µg·h/mL
same,AUC(0-t),"[2]; AUC0-8, meropenem 2 g q8h, 3.25-hour BAL Sampling Group",184 ± 29.7 µg·h/mL
same,AUC(0-t),"[2]; AUC0-8, meropenem 2 g q8h, 4-hour BAL Sampling Group",196 ± 33.5 µg·h/mL
same,AUC(0-t),"[2]; AUC0-8, meropenem 2 g q8h, 6-hour BAL Sampling Group",197 ± 38.7 µg·h/mL
same,AUC(0-t),"[2]; AUC0-8, meropenem 2 g q8h, 8-hour BAL Sampling Group",182 ± 28.7 µg·h/mL
same,AUC(0-t),"[2]; AUC0-8, meropenem 2 g q8h, All Subjects",186 ± 33.6 µg·h/mL
same,clearance,[2]; [11],208 mL/min
same,clearance,[2]; [12],185 mL/min
same,clearance,[2]; [13],175 mL/min
same,clearance,[2]; [14],173 mL/min
same,clearance,[2]; [15],187 mL/min
same,clearance,[2]; [16],185 mL/min
same,Cmax,[2]; [11],56.9 ± 19.3 µg/mL
same,Cmax,[2]; [12],57.9 ± 7.5 µg/mL
same,Cmax,[2]; [13],59.6 ± 7.4 µg/mL
same,Cmax,[2]; [14],59.4 ± 11.5 µg/mL
same,Cmax,[2]; [15],57.3 ± 9 µg/mL
same,Cmax,[2]; [16],58.2 ± 10.8 µg/mL
same,Tmax,[2]; [11],2.95 ± 0.01 h
same,Tmax,[2]; [12],3 ± 0.07 h
same,Tmax,[2]; [13],2.98 ± 0.06 h
same,Tmax,[2]; [14],2.98 ± 0.06 h
same,Tmax,[2]; [15],2.98 ± 0.06 h
same,Tmax,[2]; [16],2.98 ± 0.06 h
same,half-life,"[2]; t1/2, meropenem 2 g q8h, 1.5-hour BAL Sampling Group",0.98 ± 0.05 h
same,half-life,"[2]; t1/2, meropenem 2 g q8h, 3.25-hour BAL Sampling Group",1.04 ± 0.13 h
same,half-life,"[2]; t1/2, meropenem 2 g q8h, 4-hour BAL Sampling Group",1.07 ± 0.15 h
same,half-life,"[2]; t1/2, meropenem 2 g q8h, 6-hour BAL Sampling Group",1.12 ± 0.24 h
same,half-life,"[2]; t1/2, meropenem 2 g q8h, 8-hour BAL Sampling Group",0.96 ± 0.13 h
same,half-life,"[2]; t1/2, meropenem 2 g q8h, All Subjects",1.03 ± 0.15 h
same,Vss,[2]; [11],17.5 ± 2.5 L
same,Vss,[2]; [12],16.7 ± 2.6 L
same,Vss,[2]; [13],15.3 ± 2.1 L
same,Vss,[2]; [14],16.1 ± 3.4 L
same,Vss,[2]; [15],15.6 ± 2.8 L
same,Vss,[2]; [16],16.3 ± 2.6 L
same,"AUC, Average Meropenem Actual",[3]; [10],131.5 µg·h/mL
same,"Cmax, Average Meropenem Actual",[3]; [10],33.5 µg/mL
same,"Half-Life, Average Meropenem Actual",[3]; [10],1.4 h
same,"AUC, Average Meropenem Actual",[3]; meropenem alone (Table E),129.0 µg·h/mL
same,"Cmax, Average Meropenem Actual",[3]; meropenem alone (Table E),33.9 µg/mL
same,"Half-Life, Average Meropenem Actual",[3]; meropenem alone (Table E),1.3 h
